Converted amounts (≈) assume the structure as drawn. Like-named read-outs stand apart in the source and are kept apart here.
Assays:
[1] = system: HCT116 cells; experiment: Cell viability assay (CellTiter-Glo); assay type: cell-based; conditions: Homo sapiens, HCT-116, 72 h; read-out: IC50 ± S.D. HCT116
Procedure: (§1) Therefore, we assessed the impact of the BET-degrading FerroTAC AS6 on the viability of BET-sensitive HCT116 cells and HEK293 cells (Figure 6A). […]
(§2) room temperature and protected from light. Thereafter, the membranes were washed with TBS-T three times for 10 min, and protein bands were acquired using a ChemiDoc MP imaging system (Bio-Rad). Band quantification was performed using Image Lab software and reported as ratio of each protein band relative to […]
(§3) Peak elution was monitored using ultraviolet absorbance at 280 nm.

[2] = system: HEK293 cells; experiment: Cell viability assay (CellTiter-Glo); assay type: cell-based; conditions: 72 h
Procedure: as §1, §2, §3

[3] = Mouse liver microsome stability; assay type: in vitro ADME; conditions: liver microsomes
Procedure: Mouse Liver Microsome Stability
Testing compound (1.5 μL) or reference compound (500 μM in 5% iPrOH and 95% acetonitrile) was mixed with 18.75 μL of 20 mg/mL liver microsome (Corning) and 479.75 μL of potassium phosphate buffer (0.1 M potassium phosphate buffer, 1 mM EDTA, pH 7.4). The reaction was started by mixing 30 μL of the above mixture (prewarmed to 37 °C) with 15 μL of 6 mM NADPH stock solution (prewarmed to 37 °C). After incubating for 5, 15, 30, or 45 min, 135 μL of acetonitrile containing internal standard was added to stop the reaction. For 0 min, the compound and microsome mixture were mixed with acetonitrile first before adding NADPH. After quenching, the reaction mixture was centrifuged, and the supernatant was taken and diluted for LC-MS

[4] = ChromLogD (chromatographic); assay type: physicochemical; conditions: HPLC on Hypersil GOLD-C18 column, pH 7.4
Procedure: (§4) For the permeabilised-cell assay, 10 µL of digitonin was added, and plates were incubated in darkness for 5 minutes to allow permeabilisation. In each well 10 µL of the 10x PROTAC and vehicle control dilutions were dispensed. A 100x NanoBRET tracer solution (50 µM for VHL permeabilised-cell assay) was prepared with 100% DMSO, then diluted to a 20x solution with tracer dilution buffer. A 5 µL volume of tracer was dispensed into each well at a final concentration of 0.5 µM, and the plate was mixed at 300 RPM for 15 seconds. Finally, 50 µL of a 3x substrate solution (8.8 µL NanoBRET Nano-Glo substrate and 3,500 µL Opti-MEM) was added, and plates were incubated for 1 minute at room temperature before reading on a GloMax Discover as […]
HiBiT Lytic Assay with Zosuquidar Co-treatment
A modified HiBiT lytic assay was used to assess the activity of zosuquidar on the BET degradation. […]
(§5) Luminescence was measured using the GloMax® Multiplex Luminescence and Fluorescence Protocol for 96-well plates. The luminescence signal for each well was normalised to the fluorescence signal and further normalised to the mean values from iPrOH-treated controls, then expressed as a ratio relative to the vehicle control. Curve fitting and DC50 values were determined in GraphPad Prism v.10.0.3 using nonlinear regression with a three-parameter logistic model to calculate DC50 values.
The stock solution of each test item was prepared from a 10mM stock in iPrOH, which was further diluted 1:50 with […] to obtain a 0.2 mM solution (4 µL of the test item stock solution is diluted with 196 µL DMSO) in insert vials. The samples were analysed on an HPLC system equipped with a HPLC-ThermoScientific Hypersil GOLD-C18 column (2.1 x 50 mm, 1.9 µm) and by MS detection using electrospray ionization (ESI) and Atmospheric Pressure Chemical Ionization (APCI) on a Shimadzu LCMS 2050. […]
(§6) of 1 mL/min and a column temperature of 40 °C. […] Data were analysed with Shimadzu Open Solution Data Browser to obtain the RTs of the peak for each individual compound and standards. […]

[5] = Kinetic solubility in phosphate buffer and FeSSIF; assay type: physicochemical; conditions: kinetic from iPrOH stock
Procedure: Solubility in Phosphate Buffer and Fed State Simulated Intestinal Fluid (FeSSIF) 8 µL of reference or test compound stock solution (10 mM in iPrOH) was added to 792 μL of 100 mM phosphate buffer (pH 7.4) or FeSSIF (pH 5.8). The resulting mixture was shaken for 1 h (1000 rpm) at room temperature and then centrifuged for 10 min (12 000 rpm) to remove the undissolved particles. The supernatant was collected and diluted 10 times and 100 times separately with 100 mM phosphate buffer or FeSSIF. Five microliters of the supernatant samples (no diluted, 10 times diluted, 100 times diluted) were mixed with 95 μL of acetonitrile (containing internal standard) separately before injecting into LC-MS/MS for analysis. […]

[6] = Plasma stability assay; assay type: in vitro ADME; conditions: mouse plasma; read-out: stability T1/2 in mouse plasma
Procedure: Frozen plasma was thawed at 37 °C and centrifuged at 3000 rpm for 8 min to remove clots, and the supernatant was used in the experiment. The pH of the plasma was recorded, and only the pH range between 7.4 and 8 was used. The plasma and compound solution were prewarmed to 37 °C. 10 µL of prewarmed testing compound or reference compound (procaine) solution (20 μM in 0.05 mM sodium phosphate buffer (pH 7.4) with 0.5% BSA) was mixed with 90 μL of plasma at different time points to allow for 5, 15, 30, 45, and 60 min of incubation time. For 0 min, the plasma was mixed with vehicle only. Acetonitrile was added to the compound and plasma mixture to quench the reaction, and the resulting mixture was centrifuged (5594g for 15 min). The

[7] = LogD7.4 shake flask (octanol/phosphate buffer); assay type: physicochemical; conditions: octanol/potassium phosphate buffer, pH 7.4
Text: The modulation of lipophilicity could play a critical role in optimizing PROTACs. We thus utilized traditionally measured LogD values from shake flask experiments alongside chromatographically assessed ChromLogD values.[72] […] By incorporating ferrocene, permeability may be improved due to the feature of promoting IMHB-mediated compact conformations, while also balancing the lipophilicity of the polar ligand/PEG linkers. However, while sufficient lipophilicity is required for passive uptake over the cell membrane, it may also drive poor aqueous solubility.[73]
as §4
HiBiT Lytic Assay with Zosuquidar Co-treatment […]
as §5, with “values. […]” for “values.”
as §6
ChromLogD values for the compounds were then calculated based on the regression curve. […]

[8] = molecular target: T1, pVHL30 (Homo sapiens, UniProt P40337); experiment: Western blot VHL degradation in HEK293 cells; assay type: cell-based; conditions: HEK293, 4 h, 1 μM
T1 construct: endogenous in cells; host or cells: HEK293 (ATCC)
T1 sequence (P40337 whole entry): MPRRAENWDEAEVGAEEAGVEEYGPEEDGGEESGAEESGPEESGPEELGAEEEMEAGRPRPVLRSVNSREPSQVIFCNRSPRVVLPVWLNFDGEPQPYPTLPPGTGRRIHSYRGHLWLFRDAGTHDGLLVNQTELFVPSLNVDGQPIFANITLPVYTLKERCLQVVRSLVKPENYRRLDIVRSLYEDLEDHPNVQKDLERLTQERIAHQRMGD
Procedure: To further elucidate the mode of action of FerroTAC AS2, we explored its dependency on ubiquitination and proteasome activity.
A) Representative immunoblots of VHL protein levels after treatment of
HEK293 cells. Cells were treated with 0.1% EtOH, 0.1 μM or 1 μM of the indicated compounds for 4 and 24 h.
Controls were included at 1 μM for 24 h. Mean values of two biologically independent experiments.
Representative time-course immunoblots of VHL protein levels after treatment of HEK293 cells treated with
Cells were treated with 0.1% EtOH and controls at 1 μM. Mean values of two biologically
independent experiments. Apparent half-life values (t 1/2) were estimated by fitting band intensity against time
using a single-phase exponential decay model. C) Representative immunoblots of VHL protein levels in
neddylation inhibitor MLN4924 (3 μM) and VHL inhibitor VH032 (50 μM). The amount of EtOH (0.1%) and
DMSO (0.5%) is fixed in all samples. Band quantification was performed using ImageJ software and reported
(in black and black) as relative amount as ratio of each protein band relative to the lane’s loading control
(tubulin). VHL/tubulin protein ratios were normalised to the average of the controls (100%).
HEK293 and HCT116 cell lines, purchased from ATCC, were cultured in Dulbecco’s modified Eagle’s medium (DMEM, Gibco) supplemented with 10% fetal bovine serum (FBS, Gibco), L-glutamine (2 mM, Gibco) and 100 μg/mL of penicillin/streptomycin (Gibco). All cell lines were maintained in a humidified incubator at 37 °C and 5% CO2 for no more than 30 passages. Cells were routinely tested for mycoplasma contamination.
Cell Treatment for Immunoblotting
depending on the experimental setup. Cells were treated in fresh medium with the indicated compounds under indicated conditions with a final EtOH or iPrOH concentration of 0.01% (v/v) to 0.1% (v/v) depending on the experimental setup. […]
stored at −80°C. Protein concentration was determined by bicinchoninic acid (BCA) assay (Thermo Fisher […]
Quantitative Immunoblotting […]

Cc1ncsc1-c1ccc(CNC(=O)C2CC(O)CN2C(=O)C(NC(=O)COCCOCCOCCNC(=O)CC2N=C(c3ccc(Cl)cc3)c3c(sc(C)c3C)-n3c(C)nnc32)C(C)(C)C)cc1 (stereo not shown) [MZ1]
IC50 [1]: 1.33 µM
cytotoxicity in HEK293 cells (in words) [2]: almost no intrinsic cytotoxicity
CLint scaled at 1 µM ([3]; pH 7.4): 2180 mL/min/kg
half-life at 1 µM ([3]; pH 7.4, read-out: stability T1/2 in mouse microsome): 2.5 min
chromatographic logD [4]: 4.1
solubility kinetic at 1 h ([5]; FeSSIF pH 5.8, read-out: kinetic solubility FeSSIF (pH 5.8)): 51.1 µM (≈ 51.2 µg/mL)
solubility kinetic at 1 h ([5]; phosphate buffer, aqueous buffer, PBS pH 7.4, read-out: kinetic solubility PBS (pH 7.4)): 22.4 µM (≈ 22.4 µg/mL)
half-life at 2 µM [6]: 5.78 h
logD [7]: 3.8

Cc1ncsc1-c1ccc([C@H](C)NC(=O)[C@@H]2C[C@@H](O)CN2C(=O)[C@@H](NC(=O)COCCOCCOCCOCCOCCOCC(=O)N[C@H](C(=O)N2C[C@H](O)C[C@H]2C(=O)N[C@@H](C)c2ccc(-c3scnc3C)cc2)C(C)(C)C)C(C)(C)C)cc1 [MeCM11]
pVHL30 degradation (in words) [8]: failed to induce significant degradation
